From US12653809B2, “Urea, amide, and substituted heteroaryl compounds for CBL-B inhibition” (Nurix Therapeutics, Inc., priority 2019, dated 2026)
Like-named read-outs stand apart in the source and are kept apart here.

Molecular target: T1, Cbl-b (truncated variant, UniProt number Q13191) (Homo sapiens, UniProt Q13191)
T1 construct: made in house
Experiment: Cbl-b activity assay (TR-FRET, interaction of Cbl-b with UbcH5B-Ub)
Format: biochemical
Description: As described in Biological Example 1A, a Cbl-b activity assay (Cbl-b inhibition assay) used to measure the IC50 values for Cbl-b inhibition uses a mixture comprising candidate compound, Cbl-b (truncated, with an Avitag, and biotinylated), a fluorescently-labeled E2 enzyme UbcH5B labelled with ubiquitin conjugated to BODIPY-fluorescein (UbcH5B-Ub), streptavidin-terbium, and assay buffer. In one embodiment, the Cbl-b activity assay (Cbl-b inhibition assay) used to measure IC50 for inhibition of Cbl-b uses the conditions described in Biological Example 1A with 12 nM Cbl-b. […] In another embodiment, the Cbl-b activity assay (Cbl-b inhibition assay) used to measure IC50 for inhibition of Cbl-b uses the conditions described in Biological Example 1B, with candidate compound, 0.125 nM Cbl-b (truncated, with an avitag, and biotinylated), fluorescently labelled inhibitor probe, and assay buffer. Displacement of the inhibitor probe indicates Cbl-b activity.
Candidate compounds isolated from screening assays were evaluated for their ability to bind and inhibit Cbl-b, an E3 ubiquitin-protein ligase.
The ability of candidate compounds to inhibit Cbl-b activity was measured by monitoring the interaction of Cbl-b with UbcH5B-Ub in the presence of the candidate compound. A truncated variant of Cbl-b (UniProt number Q13191; SEQ ID NO:1) containing an Avitag at its N-terminus was co-expressed with BirA biotin ligase and purified using a standard protocol (see Dou et al., Nature Structural and Molecular Biology 8: 982-987, 2013; Avidity LLC).
Fluorescently labeled UbcH5B-Ub was prepared by conjugating ubiquitin (Ub), labeled at its N-terminus with Bodipy-Fluorescein, to UbcH5B, an E2 enzyme, harboring a cysteine to lysine mutation at position 85. This mutation is similar to a mutation that was previously reported (see Dou et al., Nature Structural and Molecular Biology 8: 982-987, 2013). Cbl-b activity assays were performed in a 384-well plate at room temperature in a 10 μL reaction volume by pre-incubating 12 nM Cbl-b (final concentration) in an assay buffer containing 50 mM HEPES pH 7.0, 100 mM NaCl, 0.01% Triton X-100, 0.01% BSA, and 1 mM DTT in the presence of a candidate compound in 1% DMSO (final concentration, High Conditions) for one hour. After incubation in the presence of the candidate compound, the plate was incubated for an additional 1.5 hours in the presence of 60 nM Src kinase with 1 mM ATP and 5 mM MgCl2 (final concentrations). Alternatively, compounds were tested as described above with assay buffer containing 50 mM NaCl instead of 100 mM NaCl and 30 nM Src kinase instead of 60 nM Src kinase (Low Conditions). Src kinase was prepared as previously described (see Kobashigawa et al., Proc Natl Acad Sci USA, 108: 20579-20584, 2011). […] The plate was incubated for one hour. Following the one hour incubation, the plates were read for TR-FRET signal at 520/620 nm using Envision plate reader (Perkin Elmer). The presence of a FRET signal that indicated Cbl-b was not inhibited by the compound candidate. The absence of a FRET signal indicated Cbl-b was inhibited by the compound candidate and was therefore a Cbl-b inhibitor.
The resulting data for the Cbl-b activity assays were analyzed using standard methods to report the IC50 values of the tested compounds (Tables 3-4). The resulting data for the Cbl-b binding assay was solvent corrected and double-referenced prior to analysis. All data were globally fit to a steady-state affinity and kinetic binding model where applicable. Compounds were ranked into bins A through D as follows for IC50: A indicates <0.1 μM, B indicates 0.1 μM≤IC50<1 μM, C indicates 1 μM≤IC50<5 μM, and D indicates 5 μM≤IC50.

[1] = Biological Example 1A, low or high conditions not stated, read-out: IC50 values in the Cbl-b inhibition assay of Biological Example 1A
[2] = high conditions: 100 mM NaCl, 60 nM Src kinase, 12 nM Cbl-b, read-out: Cbl-b activity IC50
[3] = low conditions: 50 mM NaCl, 30 nM Src kinase, 12 nM Cbl-b, read-out: Cbl-b activity IC50

T1 sequence (Q13191 36-427): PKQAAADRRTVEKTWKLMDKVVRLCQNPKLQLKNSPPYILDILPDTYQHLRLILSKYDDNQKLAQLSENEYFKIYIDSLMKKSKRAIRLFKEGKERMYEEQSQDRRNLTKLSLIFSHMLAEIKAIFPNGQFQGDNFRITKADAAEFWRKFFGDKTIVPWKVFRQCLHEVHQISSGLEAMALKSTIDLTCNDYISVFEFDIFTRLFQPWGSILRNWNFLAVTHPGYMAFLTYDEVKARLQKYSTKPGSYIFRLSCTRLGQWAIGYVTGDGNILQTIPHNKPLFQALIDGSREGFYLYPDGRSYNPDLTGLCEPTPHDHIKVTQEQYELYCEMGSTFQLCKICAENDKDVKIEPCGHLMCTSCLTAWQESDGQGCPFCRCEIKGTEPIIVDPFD

## C[C@H](Cc1nncn1C)c1cccc(NC(=O)N2C[C@H](CO)[C@@H](C)C2)c1 (relative stereo) [Example 17, (3R*,4R*)-3-(hydroxymethyl)-4-methyl-N-(3-((R)-1-(4-methyl-4H-1,2,4-triazol-3-yl)propan-2-yl)phenyl)pyrrolidine-1-carboxamide]
[1]
  IC50: 1000 to 5000 nM
[2]
  IC50: 1000 to 5000 nM

## CC(Sc1nncn1C)c1cccc(C(=O)Nc2cccc(C(F)(F)F)n2)c1 (centres unmarked) [Example 1, 3-(1-((4-methyl-4H-1,2,4-triazol-3-yl)thio)ethyl)-N-(6-(trifluoromethyl)pyridin-2-yl)benzamide]
[1]
  IC50: ≥ 5000 nM
[3]
  IC50: ≥ 5000 nM

## C[C@H](Sc1nncn1C)c1cccc(NC(=O)Nc2ccccn2)c1 [Example 2, (S)-1-(3-(1-((4-methyl-4H-1,2,4-triazol-3-yl)thio)ethyl)phenyl)-3-(pyridin-2-yl)urea]
[1]
  IC50: 100 to 1000 nM
[3]
  IC50: 100 to 1000 nM

## C[C@H](Sc1nncn1C)c1cccc(NC(=O)Nc2cccc(C(F)(F)F)n2)c1 [Example 3, (S)-1-(3-(1-((4-methyl-4H-1,2,4-triazol-3-yl)thio)ethyl)phenyl)-3-(6-(trifluoromethyl)pyridin-2-yl)urea]
[1]
  IC50: 100 to 1000 nM
[2]
  IC50: 100 to 1000 nM

## COc1cccc(NC(=O)Nc2cccc([C@H](C)Sc3nncn3C)c2)n1 [Example 4, (S)-1-(6-methoxypyridin-2-yl)-3-(3-(1-((4-methyl-4H-1,2,4-triazol-3-yl)thio)ethyl)phenyl)urea]
[2]
  IC50: ≥ 5000 nM

## C[C@H](Sc1nncn1C)c1cccc(NC(=O)NCc2ccccc2)c1 [Example 5, (S)-1-benzyl-3-(3-(1-((4-methyl-4H-1,2,4-triazol-3-yl)thio)ethyl)phenyl)urea]
[3]
  IC50: ≥ 5000 nM

## C[C@H](Sc1nncn1C)c1cccc(NC(=O)Nc2ccccc2)c1 [Example 6, (S)-1-(3-(1-((4-methyl-4H-1,2,4-triazol-3-yl)thio)ethyl)phenyl)-3-phenylurea]
[2]
  IC50: ≥ 5000 nM

## C[C@H](Sc1nncn1C)c1cccc(NC(=O)N2CCc3ccccc32)c1 [Example 7, (S)—N-(3-(1-((4-methyl-4H-1,2,4-triazol-3-yl)thio)ethyl)phenyl)indoline-1-carboxamide]
[2]
  IC50: ≥ 5000 nM

## C[C@H](Sc1nncn1C)c1cccc(NC(=O)N2CCCc3ccccc32)c1 [Example 8, (S)—N-(3-(1-((4-methyl-4H-1,2,4-triazol-3-yl)thio)ethyl)phenyl)-3,4-dihydroquinoline-1(2H)-carboxamide]
[2]
  IC50: ≥ 5000 nM

## C[C@H](Cc1nncn1C)c1cccc(NC(=O)N2CCCc3cccnc32)c1 [Example 9, (R)—N-(3-(1-(4-methyl-4H-1,2,4-triazol-3-yl)propan-2-yl)phenyl)-3,4-dihydro-1,8-naphthyridine-1(2H)-carboxamide]
[1]
  IC50: 100 to 1000 nM
[2]
  IC50: 100 to 1000 nM

## C[C@H](Cc1nncn1C)c1cccc(NC(=O)N2CCOc3cccnc32)c1 [Example 10, (R)—N-(3-(1-(4-methyl-4H-1,2,4-triazol-3-yl)propan-2-yl)phenyl)-2,3-dihydro-4H-pyrido[3,2-b][1,4]oxazine-4-carboxamide]
[1]
  IC50: < 100 nM
[2]
  IC50: < 100 nM

## COC(=O)C1(C(F)(F)F)CCN(C(=O)Nc2cccc([C@H](C)Cc3nncn3C)c2)C1 (stereo partly drawn) [Example 11, Methyl 1-((3-((R)-1-(4-methyl-4H-1,2,4-triazol-3-yl)propan-2-yl)phenyl)carbamoyl)-3-(trifluoromethyl)pyrrolidine-3-carboxylate]
[1]
  IC50: 1000 to 5000 nM
[2]
  IC50: 1000 to 5000 nM

## CNC(=O)C1(C)CCN(C(=O)Nc2cccc([C@H](C)Cc3nncn3C)c2)C1 (stereo partly drawn) [Example 12, N^3,3-dimethyl-N′-(3-((R)-1-(4-methyl-4H-1,2,4-triazol-3-yl)propan-2-yl)phenyl)pyrrolidine-1,3-dicarboxamide]
[1]
  IC50: ≥ 5000 nM
[2]
  IC50: ≥ 5000 nM

## Cc1cccc2c1CN(C(=O)Nc1cccc([C@H](C)Cc3nncn3C)c1)C2 [Example 13, (R)-4-methyl-N-(3-(1-(4-methyl-4H-1,2,4-triazol-3-yl)propan-2-yl)phenyl)isoindoline-2-carboxamide]
[1]
  IC50: 100 to 1000 nM
[2]
  IC50: 100 to 1000 nM

## C[C@H](Cc1nncn1C)c1ccnc(C(=O)Nc2cccc(C(F)(F)F)n2)c1 [Example 14, 4-[(2R)-1-(4-methyl-4H-1,2,4-triazol-3-yl)propan-2-yl]-N-[6-(trifluoromethyl)pyridin-2-yl]pyridine-2-carboxamide]
[1]
  IC50: 100 to 1000 nM
[2]
  IC50: 100 to 1000 nM

## C[C@H](Cc1nncn1C)c1cccc(NC(=O)N2CCC(C(=O)O)(C(F)(F)F)C2)c1 (stereo partly drawn) [Example 15, 1-((3-((R)-1-(4-methyl-4H-1,2,4-triazol-3-yl)propan-2-yl)phenyl)carbamoyl)-3-(trifluoromethyl)pyrrolidine-3-carboxylic acid]
[1]
  IC50: 1000 to 5000 nM
[2]
  IC50: 1000 to 5000 nM

## C[C@H](Cc1nncn1C)c1cccc(NC(=O)N2CCc3cccnc32)c1 [Example 16, (R)—N-(3-(1-(4-methyl-4H-1,2,4-triazol-3-yl)propan-2-yl)phenyl)-2,3-dihydro-1H-pyrrolo[2,3-b]pyridine-1-carboxamide]
[1]
  IC50: 100 to 1000 nM
[2]
  IC50: 100 to 1000 nM

## C[C@H](Cc1nncn1C)c1cccc(C(=O)Nc2cccc(C(F)(F)F)n2)c1 [Example 18, (R)-3-(1-(4-methyl-4H-1,2,4-triazol-3-yl)propan-2-yl)-N-(6-(trifluoromethyl)pyridin-2-yl)benzamide]
[1]
  IC50: ≥ 5000 nM
[2]
  IC50: ≥ 5000 nM

## C[C@H](Cc1nncn1C)c1cccc(NC(=O)N2CC(C)(C)Oc3cccnc32)c1 [Example 19, (R)-2,2-dimethyl-N-(3-(1-(4-methyl-4H-1,2,4-triazol-3-yl)propan-2-yl)phenyl)-2,3-dihydro-4H-pyrido[3,2-b][1,4]oxazine-4-carboxamide]
[1]
  IC50: < 100 nM
[2]
  IC50: < 100 nM

## CNC(=O)C1(C(F)(F)F)CCN(C(=O)Nc2cccc([C@H](C)Cc3nncn3C)c2)C1 (stereo partly drawn) [Example 20, N^3-methyl-N^1-(3-((R)-1-(4-methyl-4H-1,2,4-triazol-3-yl)propan-2-yl)phenyl)-3-(trifluoromethyl)pyrrolidine-1,3-dicarboxamide]
[2]
  IC50: 100 to 1000 nM

## C[C@H](Cc1nncn1C)c1cccc(NC(=O)N2CCOc3cc(Br)cnc32)c1 [Example 21, (R)-7-bromo-N-(3-(1-(4-methyl-4H-1,2,4-triazol-3-yl)propan-2-yl)phenyl)-2,3-dihydro-4H-pyrido[3,2-b][1,4]oxazine-4-carboxamide]
[2]
  IC50: 100 to 1000 nM

## C[C@H](Cc1nncn1C)c1cccc(NC(=O)N2CC(C)(C)c3cccnc32)c1 [Example 22, (R)-3,3-dimethyl-N-(3-(1-(4-methyl-4H-1,2,4-triazol-3-yl)propan-2-yl)phenyl)-2,3-dihydro-1H-pyrrolo[2,3-b]pyridine-1-carboxamide]
[2]
  IC50: 100 to 1000 nM

## Cn1cnnc1CC1(c2cccc(NC(=O)N3CCOc4cccnc43)c2)COC1 [Example 23, N-(3-(3-((4-methyl-4H-1,2,4-triazol-3-yl)methyl)oxetan-3-yl)phenyl)-2,3-dihydro-4H-pyrido[3,2-b][1,4]oxazine-4-carboxamide]
[2]
  IC50: 100 to 1000 nM

## Cn1cnnc1C(F)(F)[C@](C)(F)c1cccc(NC(=O)N2CCOc3cccnc32)c1 [Example 24, (R)—N-(3-(1,1,2-trifluoro-1-(4-methyl-4H-1,2,4-triazol-3-yl)propan-2-yl)phenyl)-2,3-dihydro-4H-pyrido[3,2-b][1,4]oxazine-4-carboxamide]
[2]
  IC50: 100 to 1000 nM
